Patent publication US12558424B2, “T cells having enhanced anti-tumor activity” (The United States of America, as represented by the …, priority 2019, dated 2026)
Read-outs that look alike come from different tables or passages of the source.

Legend:
MiaPaCa [1] = test: MiaPaCa Lactate OP; type: cell-based; conditions: Homo sapiens, MIA PaCa-2; MiaPaCa cells
lactate dehydrogenase = lactate dehydrogenase (Homo sapiens, UniProt P00338); test: SPR binding (+NADH)
MiaPaCa [2] = test: MiaPaCa CTG; type: cell-based; conditions: Homo sapiens, MIA PaCa-2; MiaPaCa cells
[3] = PK AUC after IV and PO dosing; conditions: in vivo
A673 [4] = test: A673 CTG; type: cell-based; conditions: Homo sapiens; A673 cells
LDA(B) = LDA(B) (Homo sapiens, UniProt P07195); test: LDA(B) biochemical IC50
LDH(A) = LDH(A) (Homo sapiens, UniProt P00338); test: LDH(A) biochemical IC50
A673 [5] = test: A673 Lactate OP; type: cell-based; conditions: Homo sapiens; A673 cells
human CD8+ T cells = test: Seahorse mitochondrial stress test (OCR, ECAR, SRC), human CD8+ T cells; type: cell-based; conditions: both IL-21 and IL-2
pmel-1 CD8+ T cells = test: Flow cytometry of pmel-1 CD8+ T cell differentiation (CD44, CD62L, Sca-1); type: cell-based, mouse; conditions: NCI-737 1 μM
mouse CD8+ T cells = test: Seahorse mitochondrial stress test (OCR, ECAR, SRC), mouse CD8+ T cells; type: cell-based; conditions: NCI-737 1 μM
Experimental: (§1) Except where otherwise specified, all experiments were performed with murine splenic CD8+ T cells isolated with […] Technologies EasySep™ Mouse CD8+ T Cell Isolation Kit (catalog #19853). Following isolation, cells were resuspended at 1×10^6 cells/ml in T cell culture medium: RPMI 1640 medium (Thermo 11875093) containing 10% fetal bovine serum (FBS), 1× Glutamax (Life Technologies #35050-061), 1 mM sodium pyruvate, 0.1% β-mercaptoethanol, and penicillin/streptomycin. Cells were plated in 24-well tissue culture plates precoated with mouse anti-CD3 (2 μg/ml) and cultured with soluble mouse anti-CD28 (2 μg/ml) for 48 h. After incubation, cells were pooled, washed twice in media, and re-plated at 1×10^6 cells/ml. […] Unless otherwise specified, cells were stimulated for 48 h before being harvested. Where noted, cells were treated (1 μM) with a novel, pyrazole-based LDH inhibitor (NCI-737, herein denoted as NCI-737) that was developed under the auspices of the NCI Experimental Therapeutics Program 29.
The oxygen consumption rates (OCR) and extracellular acidification rates (ECAR) were recorded using a Seahorse XFe96 Analyzer (Agilent). Cells were washed and resuspended in Agilent XF Assay Medium supplemented with 25 mM glucose, 1 mM sodium pyruvate, and 2 mM L-Glutamine. Cells were plated on Seahorse Assay plates at 0.2×10^6 cells/well and during the assay were exposed to 1 μM oligomycin, 1.5 μM trifluoromethoxy carbonylcyanide phenylhydrazone (“FCCP”), 100 nM rotenone, and 1 μM antimycin A, as indicated.

[6] = test system: murine splenic CD8+ T cells; test: U-13C-glucose tracer study; type: cell-based, mouse; conditions: NCI-737 1 μM
Experimental: as §1, with “Where noted, cells were treated (1 μM) with a novel, pyrazole-based LDH inhibitor (NCI-737, herein denoted as NCI-737) that was developed under the auspices of the NCI Experimental Therapeutics Program 29.” left out
(§2) Cells were then washed with media supplemented with dialyzed fetal bovine serum (“FBS”) (Thermo-Fischer #A3382001), replated in RPMI 1640 medium containing 10% dialyzed FBS, 1× Glutamax (ThermoFisher #35050061), 1 mM sodium pyruvate, 0.1% β-mercaptoethanol, and penicillin-streptomycin, and re-stimulated with same cytokine treatment for 5 h. […] Cell extracts were analyzed using a quadrupole-orbitrap mass spectrometer (Q Exactive, Thermo Fisher Scientific, San Jose, CA) coupled to hydrophilic interaction chromatography via electrospray ionization. […] Data were analyzed using EL-MAVEN software. […]

B16 melanoma (B16KVP) = test: Mouse tumor model and adoptive transfer; type: in vivo
[7] = test system: murine splenic CD8+ T cells; test: Media measurements of lactate secretion and glucose consumption (YSI 2900 analyzer); type: cell-based, mouse; conditions: IL-2- or IL-21-stimulated cells; NCI-737 1 μM
Experimental: as §1, with “Where noted, cells were treated (1 μM) with a novel, pyrazole-based LDH inhibitor (NCI-737, herein denoted as NCI-737) that was developed under the auspices of the NCI Experimental Therapeutics Program 29.” left out
as §2

[8] = test system: murine splenic CD8+ T cells; test: LC-MS metabolomics of intracellular metabolites; type: cell-based, mouse; conditions: NCI-737 1 μM
Experimental: as §1
Cells were then washed with media supplemented with dialyzed fetal bovine serum (“FBS”) (Thermo-Fischer #A3382001), replated in RPMI 1640 medium containing 10% dialyzed FBS, 1× Glutamax (ThermoFisher #35050061), 1 mM sodium pyruvate, 0.1% β-mercaptoethanol, and penicillin-streptomycin, and re-stimulated with same cytokine treatment for 5 h. For ^13C labelling, cells were instead replated in media containing 2 g/L U^13C-glucose (Cambridge Isotope Laboratories #CLM-1396) for 6 h. 3×10^6 cells/replicate (3-4 replicates/treatment) were then transferred to microcentrifuge tubes and centrifuged for 1 min at 6000×g. Room temperature PBS was added to wash cell pellets followed by another round of centrifugation for 1 min. Pellets were then immediately resuspended in 150 μl of ice cold extraction solvent (40:40:20 acetonitrile:methanol:water+0.5% formic acid) for 5 min. After incubation, 13.2 μl of 15% ammonium bicarbonate, was added and samples were centrifuged for 15 min at maximum speed at 4° C. Supernatant containing cellular metabolites was transferred to a fresh tube, frozen in dry ice, and stored at −80° C. Cell extracts were analyzed using a quadrupole-orbitrap mass spectrometer (Q Exactive, Thermo Fisher Scientific, San Jose, CA) coupled to hydrophilic interaction chromatography via electrospray ionization. LC separation was on a XBridge BEH Amide column (2.1 mm×150 mm, 2.5 μm particle size; Waters, Milford, MA) using a gradient of solvent A (20 mM ammonium acetate, 20 mM ammonium hydroxide in 95:5 water: acetonitrile, pH 9.45) and solvent B (acetonitrile). The flow rate was 150 μl/min, column temperature was 25° C., autosampler temperature was 5° C., and injection volume was 10 μL. The LC gradient was: 0 min, 90% B; 2 min, 85% B; 3 min, 75% B; 7 min, 75% B; 8 min, 70% B; 9 min, 70% B; 10 min, 50% B; 12 min, 50% B; 13 min, 25% B; 14 min, 25% B; 16 min, 0% B; 21 min, 0% B; 22 min, 90% B; 25 min, 90% B. Autosampler temperature was 5° C., and injection volume was 10 μl. The mass spectrometer was operated in negative ion mode to scan from m/z 70 to 1000 at 1 Hz and a resolving power of 140,000 45. Data were analyzed using EL-MAVEN software. Isotope labeling was corrected for natural 13C abundance47. Media measurements were acquired using a YSI 2900 Series Biochemical Analyzer (Xylem).

[9] = test system: murine splenic CD8+ T cells; test: RNA-Seq gene expression; type: cell-based, mouse
Experimental: as §1
Total RNA was extracted using an RNA miniprep kit (Zymo Research), and 500 ng RNA was used for library preparation. RNA-Seq libraries were prepared using mRNA HyperPrep Kits (KK8580, Kapa Biosystems) and indexed with NEXTflex DNA Barcodes-24. After final amplification, samples were loaded to 2% E-Gel pre-cast gels (ThermoFisher), and 250 to 400 bp DNA fragments were recovered and purified with Zymoclean Gel DNA Recovery Kit […]. After quantification by Qubit (Invitrogen), barcoded samples were mixed and sequenced on an Illumina HiSeq3000 platform. Sequenced reads (50 bp, single end) were obtained with the Illumina CASAVA pipeline and mapped to the mouse genome mm10 (GRCm38, December 2011) using Bowtie 2.2.649 and Tophat 2.2.149. Only uniquely mapped reads were retained. Raw counts that fell on exons were calculated and normalized by using RPKM (Reads Per Kilobase per Million mapped reads). Differentially expressed genes were identified with the R Bioconductor package edgeR50, and the expression heat maps were generated with the R package “pheatmap”. Metabolic genes were extracted from the KEGG pathway database, including those corresponding to Fatty Acid Biosynthesis/Degradation, Ox/Phos, Pyruvate metabolism, amino sugar and nucleotide sugar metabolism, pentose phosphate pathway, the citric acid cycle, and glycolysis/gluconeogenesis. Metabolic genes that overlapped with RNA-Seq data were subsequently shown in heat maps.

[10] = PO 50 mg/kg, read-out: PO 50 mg/kg AUC

Chain of LDA(B) (P07195 whole entry): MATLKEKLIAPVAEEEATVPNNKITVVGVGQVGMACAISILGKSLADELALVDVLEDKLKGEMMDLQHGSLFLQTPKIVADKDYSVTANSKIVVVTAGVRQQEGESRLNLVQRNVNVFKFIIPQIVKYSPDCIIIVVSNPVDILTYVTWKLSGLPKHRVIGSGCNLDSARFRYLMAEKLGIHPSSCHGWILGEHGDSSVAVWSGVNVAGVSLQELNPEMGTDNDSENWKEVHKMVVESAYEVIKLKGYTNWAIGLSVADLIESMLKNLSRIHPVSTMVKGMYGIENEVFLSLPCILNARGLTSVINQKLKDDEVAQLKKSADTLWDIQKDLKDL

**Q.** Which EC50 (MiaPaCa [1]) does the source give for Cc1ccc(C#Cc2cc(-c3nn(-c4nc(C(=O)O)cs4)c(CC4CC4)c3Cc3ccc(S(N)(=O)=O)c(F)c3)ccc2F)s1 [Compound 390006] here?
**A.** 283 nM

**Q.** And the “SPR ka (+NADH)” value (lactate dehydrogenase)?
**A.** 15000 M⁻¹ s⁻¹

**Q.** And the “SPR kd (+NADH)” value (lactate dehydrogenase)?
**A.** <1e-06 s⁻¹

**Q.** And the EC50 (MiaPaCa [2])?
**A.** 355 nM

**Q.** What about the AUC ([3]; IV 10 mg/kg) of the same molecule?
**A.** 10600 ng·h/mL

**Q.** What about the AUC [3, 10] of the same molecule?
**A.** 31400 ng·h/mL

**Q.** And the EC50 (A673 [4])?
**A.** 305 nM

**Q.** What about the IC50 (LDA(B)) of the same molecule?
**A.** 53 nM

**Q.** And the IC50 (LDH(A))?
**A.** 80 nM

**Q.** And the EC50 (A673 [5])?
**A.** 349 nM

**Q.** With Cc1ccc(C#Cc2cccc(-c3nn(-c4nc(C(=O)O)cs4)c(CC4CC4)c3Cc3ccc(S(N)(=O)=O)c(F)c3)c2)s1 [Compound 420737] as the molecule, how does the EC50 (MiaPaCa [1]) read?
**A.** 236 nM

**Q.** What about the ECAR (human CD8+ T cells) of the same molecule?
**A.** decreased

**Q.** What about the SRC (human CD8+ T cells) of the same molecule?
**A.** raised

**Q.** And the “SPR ka (+NADH)” value (lactate dehydrogenase)?
**A.** 16000 M⁻¹ s⁻¹

**Q.** And the “SPR kd (+NADH)” value (lactate dehydrogenase)?
**A.** <1e-06 s⁻¹

**Q.** What about the TSCM cells (pmel-1 CD8+ T cells; IL-2-treated pmel-1 cells) of the same molecule?
**A.** restored TSCM cells in IL-2-treated cells to the levels observed with IL-21

**Q.** What about the TSCM cells (pmel-1 CD8+ T cells; IL-21-treated pmel-1 cells) of the same molecule?
**A.** synergized with IL-21 to generate TSCM cells

**Q.** What about the EC50 (MiaPaCa [2]) of the same molecule?
**A.** 319 nM

**Q.** What about the ECAR (mouse CD8+ T cells; IL-2-treated cells) of the same molecule?
**A.** decreased

**Q.** And the OCR (mouse CD8+ T cells; IL-2-treated cells)?
**A.** significantly increased

**Q.** What about the SRC (mouse CD8+ T cells; IL-2-treated cells) of the same molecule?
**A.** significantly increased

**Q.** What about the ECAR (mouse CD8+ T cells; IL-21-treated cells) of the same molecule?
**A.** did not significantly alter

**Q.** And the SRC (mouse CD8+ T cells; IL-21-treated cells)?
**A.** did not significantly alter

**Q.** And the “basal OCR” value (mouse CD8+ T cells; IL-21-treated cells)?
**A.** did not significantly alter

**Q.** What about the AUC ([3]; IV 10 mg/kg) of the same molecule?
**A.** 16500 ng·h/mL

**Q.** And the AUC [3, 10]?
**A.** 53400 ng·h/mL

**Q.** And the EC50 (A673 [4])?
**A.** 221 nM

**Q.** And the “relative contribution of glucose into the TCA cycle” value ([6]; IL-2-treated cells)?
**A.** higher relative contribution

**Q.** What about the isotopomer distribution ([6]; IL-21-stimulated cells) of the same molecule?
**A.** little effect

**Q.** What about the IC50 (LDA(B)) of the same molecule?
**A.** 44 nM

**Q.** What about the “antitumor effect of adoptively transferred pmel-1 CD8+ T cells” value (B16 melanoma (B16KVP); IL-2-treated cells, NCI-737 1 μM only during in vitro expansion) of the same molecule?
**A.** augmented the antitumor effect to the level of IL-21-treated cells

**Q.** What about the “antitumor effect of adoptively transferred pmel-1 CD8+ T cells” value (B16 melanoma (B16KVP); cells generated with IL-21 and NCI-737 (1 μM, in vitro only)) of the same molecule?
**A.** the most potent

**Q.** And the glucose consumption [7]?
**A.** reduced

**Q.** And the lactate secretion [7]?
**A.** reduced

**Q.** What about the IC50 (LDH(A)) of the same molecule?
**A.** 68 nM

**Q.** What about the “increase in the NADH/NAD+ ratio” value ([8]; IL-2-treated cells) of the same molecule?
**A.** ~100 fold

**Q.** And the intracellular pyruvate ([8]; IL-2-treated cells)?
**A.** markedly increased

**Q.** And the “2-hydroxyglutarate (2HG)” value ([8]; IL-2 setting)?
**A.** decreased

**Q.** What about the “increase in glycolytic intermediates and FGAR” value ([8]; IL-2 setting) of the same molecule?
**A.** > 4 fold

**Q.** And the “NADH/NAD+ ratio” value ([8]; IL-21 stimulated cells)?
**A.** slightly raised

**Q.** And the intracellular pyruvate levels ([8]; IL-21 stimulated cells)?
**A.** did not alter

**Q.** What about the metabolite levels ([8]; IL-21 stimulated cells) of the same molecule?
**A.** little effect

**Q.** And the lactate in cells ([8]; cells stimulated with either IL-2 or IL-21)?
**A.** lowered

**Q.** What about the EC50 (A673 [5]) of the same molecule?
**A.** 344 nM

**Q.** And the “transcripts for exhaustion-associated transcription factors Nr4a1, Nr4a2, Nrfa3, Prdm1” value ([9]; IL-2-induced, addition of NCI-737)?
**A.** decreased by the addition of NCI-737 to levels similar to that observed in cells cultured with IL-21

**Q.** What about the “induction of Ldha by IL-2” value ([9]; IL-2 context, NCI-737 1 μM) of the same molecule?
**A.** prevented the induction

**Q.** And the “levels of Ldhb” value ([9]; IL-2 context, NCI-737 1 μM)?
**A.** increased

**Q.** And the XBP1 transcript expression ([9]; induced by IL-2, NCI-737)?
**A.** inhibited

**Q.** What about the “transcripts for exhaustion markers Lag3, Pdcd1, Cd244, Havcr2” value ([9]; induced by IL-21, addition of NCI-737) of the same molecule?
**A.** repressed
